From US6395896B2, “Pyridazine derivatives, manufacturing method and related composition” (Shiseido Co., Ltd., priority 1999, dated 2002)

Experiments:
[1] = Pigment stabilization effect (sequestering agent combination); set-up: key to Sunlight exposure (80 MJ) Appearance: A: No change; B: No almost change; C: Yes change; key to Sunlight exposure (80 MJ) ΔE: color difference ΔE in Lab space vs. color before sunlight exposure; details: for Sunlight exposure (80 MJ) Appearance / Sunlight exposure (80 MJ) ΔE: amounts wt %
Protocol: First of all, the photostabilization effect and appearance changes of a composition for each pigment were studied by the following evaluation formulation.
Each test sample was prepared. Observation of appearance changes (visual evaluation) and measurement of color difference (ΔE) were carried out for samples exposed to sunlight (around 80 MJ).
Color difference was measured by Lab coordinate system with spectrophotometer. Color difference was calculated based on the color before sunlight exposure. Namely, from the measured value (L1,a1,b1) before sunlight exposure, color difference (ΔE) was calculated by following formula.

[2] = colorant Red No. 401 0.001, photostabilizer 0.02 + Sodium polyphosphate 0.1
[3] = colorant Red No. 401 0.001, photostabilizer 0.03 + Trisodium ethylenediamine tetraacetate 0.1
[4] = colorant Red No. 401 0.001, photostabilizer 0.03, no sequestering agent
[5] = colorant Yellow No. 5 0.001, photostabilizer 0.01 + Sodium metaphosphate 0.02
[6] = colorant Yellow No. 5 0.001, photostabilizer 0.01 + Sodium polyphosphate 0.02
[7] = colorant Yellow No. 5 0.001, photostabilizer 0.01 + Trisodium ethylenediamine tetraacetate 0.02
[8] = colorant Yellow No. 5 0.001, photostabilizer 0.01, no sequestering agent
[9] = colorant Yellow No. 203 0.001, photostabilizer 0.01 + Sodium metaphosphate 0.02
[10] = colorant Yellow No. 203 0.001, photostabilizer 0.01 + Trisodium ethylenediamine tetraacetate 0.02
[11] = colorant Yellow No. 203 0.001, photostabilizer 0.01 + Trisodium hydroxyethyl ethylenediamine triacetate 0.02
[12] = colorant Yellow No. 203 0.001, photostabilizer 0.01, no sequestering agent
[13] = colorants Red No. 106 0.00001 + Yellow No. 5 0.0001, photostabilizer 0.02 + Trisodium ethylenediamine tetraacetate 0.02
[14] = colorants Red No. 106 0.00001 + Yellow No. 5 0.0001, photostabilizer 0.02, no sequestering agent
[15] = colorants Red No. 106 0.00001 + Yellow No. 203 0.0001, photostabilizer 0.02 + Trisodium hydroxyethyl ethylenediamine triacetate 0.02
[16] = colorants Red No. 106 0.00001 + Yellow No. 203 0.0001, photostabilizer 0.02, no sequestering agent
[17] = colorants Red No. 213 0.00001 + Blue No. 1 0.00001, photostabilizer 0.02 + Trisodium hydroxyethyl ethylenediamine triacetate 0.03
[18] = colorants Red No. 213 0.00001 + Blue No. 1 0.00001, photostabilizer 0.02, no sequestering agent
[19] = colorants Red No. 227 0.0001 + Yellow No. 5 0.0001, photostabilizer 0.02 + Trisodium ethylenediamine tetraacetate 0.02
[20] = colorants Red No. 227 0.0001 + Yellow No. 5 0.0001, photostabilizer 0.02, no sequestering agent
[21] = colorants Red No. 227 0.0001 + Yellow No. 203 0.0001, photostabilizer 0.05 + Sodium metaphosphate 0.02
[22] = colorants Red No. 227 0.0001 + Yellow No. 203 0.0001, photostabilizer 0.05, no sequestering agent
[23] = colorants Red No. 401 0.0001 + Blue No. 1 0.00001, photostabilizer 0.02 + Trisodium ethylenediamine tetraacetate 0.03
[24] = colorants Red No. 401 0.0001 + Blue No. 1 0.00001, photostabilizer 0.02, no sequestering agent
[25] = colorants Red No. 401 0.0001 + Green No. 3 0.00001, photostabilizer 0.02 + Sodium metaphosphate 0.03
[26] = colorants Red No. 401 0.0001 + Green No. 3 0.00001, photostabilizer 0.02, no sequestering agent
[27] = colorants Yellow No. 203 0.0001 + Yellow No. 5 0.0001, photostabilizer 0.02 + Sodium metaphosphate 0.01
[28] = colorants Yellow No. 203 0.0001 + Yellow No. 5 0.0001, photostabilizer 0.02, no sequestering agent

melting point: 256 to 257 °C (dec.)
SMILES: Oc1nncc(N2CCOCC2)c1N1CCOCC1 [4,5-Dimorpholino-3-hydroxypyridazine]
Sunlight exposure (80 MJ) Appearance [1, 2]: A | Sunlight exposure (80 MJ) ΔE [1, 2]: 0.78 | Sunlight exposure (80 MJ) Appearance [1, 3]: A | Sunlight exposure (80 MJ) ΔE [1, 3]: 0.71 | Sunlight exposure (80 MJ) Appearance [1, 4]: A | Sunlight exposure (80 MJ) ΔE [1, 4]: 0.95 | Sunlight exposure (80 MJ) Appearance [1, 5]: A | Sunlight exposure (80 MJ) ΔE [1, 5]: 0.36 | Sunlight exposure (80 MJ) Appearance [1, 6]: A | Sunlight exposure (80 MJ) ΔE [1, 6]: 0.33 | Sunlight exposure (80 MJ) Appearance [1, 7]: A | Sunlight exposure (80 MJ) ΔE [1, 7]: 0.32 | Sunlight exposure (80 MJ) Appearance [1, 8]: B | Sunlight exposure (80 MJ) ΔE [1, 8]: 0.61 | Sunlight exposure (80 MJ) Appearance [1, 9]: A | Sunlight exposure (80 MJ) ΔE [1, 9]: 0.22 | Sunlight exposure (80 MJ) Appearance [1, 10]: A | Sunlight exposure (80 MJ) ΔE [1, 10]: 0.28 | Sunlight exposure (80 MJ) Appearance [1, 11]: A | Sunlight exposure (80 MJ) ΔE [1, 11]: 0.25 | Sunlight exposure (80 MJ) Appearance [1, 12]: B | Sunlight exposure (80 MJ) ΔE [1, 12]: 0.95 | Sunlight exposure (80 MJ) Appearance [1, 13]: A | Sunlight exposure (80 MJ) ΔE [1, 13]: 0.98 | Sunlight exposure (80 MJ) Appearance [1, 14]: B | Sunlight exposure (80 MJ) ΔE [1, 14]: 1.33 | Sunlight exposure (80 MJ) Appearance [1, 15]: A | Sunlight exposure (80 MJ) ΔE [1, 15]: 0.75 | Sunlight exposure (80 MJ) Appearance [1, 16]: A | Sunlight exposure (80 MJ) ΔE [1, 16]: 1.10 | Sunlight exposure (80 MJ) Appearance [1, 17]: A | Sunlight exposure (80 MJ) ΔE [1, 17]: 1.22 | Sunlight exposure (80 MJ) Appearance [1, 18]: B | Sunlight exposure (80 MJ) ΔE [1, 18]: 1.88 | Sunlight exposure (80 MJ) Appearance [1, 19]: A | Sunlight exposure (80 MJ) ΔE [1, 19]: 0.71 | Sunlight exposure (80 MJ) Appearance [1, 20]: B | Sunlight exposure (80 MJ) ΔE [1, 20]: 1.02 | Sunlight exposure (80 MJ) Appearance [1, 21]: A | Sunlight exposure (80 MJ) ΔE [1, 21]: 1.01 | Sunlight exposure (80 MJ) Appearance [1, 22]: A | Sunlight exposure (80 MJ) ΔE [1, 22]: 1.55 | Sunlight exposure (80 MJ) Appearance [1, 23]: A | Sunlight exposure (80 MJ) ΔE [1, 23]: 0.88 | Sunlight exposure (80 MJ) Appearance [1, 24]: A | Sunlight exposure (80 MJ) ΔE [1, 24]: 1.36 | Sunlight exposure (80 MJ) Appearance [1, 25]: A | Sunlight exposure (80 MJ) ΔE [1, 25]: 0.73 | Sunlight exposure (80 MJ) Appearance [1, 26]: B | Sunlight exposure (80 MJ) ΔE [1, 26]: 1.45 | Sunlight exposure (80 MJ) Appearance [1, 27]: A | Sunlight exposure (80 MJ) ΔE [1, 27]: 0.48 | Sunlight exposure (80 MJ) Appearance [1, 28]: A | Sunlight exposure (80 MJ) ΔE [1, 28]: 0.78 | color difference ΔE ([1]; with a sequestering agent, compared with compositions not having a sequestering agent, Tables 24 to 26): very small | change of appearance of the composition ([1]; with a sequestering agent, Tables 24 to 26): small
